# Test results as given in US11253589B2, “Modulation of the immune response” (priority 2007, dated 2022).
# Legend:
# C57BL/6 mice = assay: EAE induced by immunization with MOG35-55 in CFA; type: in vivo, mouse
# AHR = biological target: T1, AHR (Homo sapiens, UniProt P35869); conditions: cited from earlier work
# T1 sequence (P35869 11-848): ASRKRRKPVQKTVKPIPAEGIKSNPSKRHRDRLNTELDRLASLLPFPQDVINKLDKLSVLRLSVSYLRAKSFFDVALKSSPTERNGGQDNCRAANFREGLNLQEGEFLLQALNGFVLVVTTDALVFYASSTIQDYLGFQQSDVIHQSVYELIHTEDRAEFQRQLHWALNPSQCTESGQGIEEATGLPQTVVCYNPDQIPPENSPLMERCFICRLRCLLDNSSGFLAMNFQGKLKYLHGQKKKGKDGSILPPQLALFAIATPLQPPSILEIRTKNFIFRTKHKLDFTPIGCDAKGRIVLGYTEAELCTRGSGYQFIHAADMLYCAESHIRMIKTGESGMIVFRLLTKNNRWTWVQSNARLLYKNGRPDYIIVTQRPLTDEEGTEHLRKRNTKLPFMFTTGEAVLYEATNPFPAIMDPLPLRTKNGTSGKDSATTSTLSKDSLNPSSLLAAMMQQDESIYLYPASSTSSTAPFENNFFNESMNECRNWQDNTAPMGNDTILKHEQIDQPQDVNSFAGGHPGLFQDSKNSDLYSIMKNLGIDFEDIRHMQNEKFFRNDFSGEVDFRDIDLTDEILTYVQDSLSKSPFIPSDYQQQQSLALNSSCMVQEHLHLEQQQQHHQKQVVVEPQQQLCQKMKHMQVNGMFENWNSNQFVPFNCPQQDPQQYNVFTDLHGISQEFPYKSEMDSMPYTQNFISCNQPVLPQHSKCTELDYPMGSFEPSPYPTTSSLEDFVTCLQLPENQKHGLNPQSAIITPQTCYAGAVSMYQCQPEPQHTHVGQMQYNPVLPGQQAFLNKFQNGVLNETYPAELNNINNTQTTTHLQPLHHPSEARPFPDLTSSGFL
# [1] = compared with toxic effects reported for TCDD; cited from earlier work
# CD4+Foxp3:GFP+ Treg = assay: Treg suppressive activity assay; type: cell-based, mouse; conditions: resveratrol treated cells
# Procedure: Cells were cultured in serum-free X-VIVO 20™ media (BioWhittaker, Walkersville, Md., USA) for 72 hours. During the last 16 hours, cells were pulsed with 1 μCi of [^3H]thymidine (PerkinElmer, Waltham, Mass., USA) followed by harvesting on glass fiber filters and analysis of incorporated [^3H]thymidine in a beta-counter (1450 Microbeta, Trilux, PerkinElmer). Alternatively, culture supernatants were collected […] activation and the cytokine concentration was determined by ELISA using antibodies for IFN-γ, IL-17, IL-4, IL-10 from BD Biosciences and antibodies to TGF-β from R&D Systems. For suppression assays, MACS purified CD4^+CD25^− T cells from naïve C57BL/6 mice (1-5×10^4 cells/well) were stimulated with antibodies to CD3 and C57BL/6 irradiated spleen cells (0.3-1.5×10^4 cells/well) for 3 days in the presence of different ratios of CD4^+ GFP^+ retrovirus-transduced T cells.
# To investigate the active suppression of MOG35-55-specific Teff by Treg, Foxp3^gpf knock in mice were immunized with MOG35-55/CFA, treated daily with intreaperitoneal ITE ([…]) and the recall response to MOG35-55 and a mitogenic antibody to CD3 antibody was studied on FACS-sorted CD4^+ T cells and CD4^+ FoxP3:GFP− Teff. […] This suppressed response to MOG35-55 was lost upon removal of the CD4^+FoxP3:GFP^+ Treg (FIG. 26). To further analyze the MOG35-55-specific suppressive activity of the CD4^+FoxP3:GFP^+ Treg, they were cocultured at different ratios and assayed for the suppression of MOG35-55 or anti-CD3-triggered proliferation of CD4^+FoxP3:GFP− Teff form 2D2 mice, which harbor a TCR specific for MOG35-55.
# CD4+Foxp3:GFP- T cells = assay: In vitro conversion of CD4+Foxp3:GFP- T cells into Treg; type: cell-based, mouse; conditions: resveratrol 50 μM
# Procedure: CD4+ T cells were purified from Foxp3gfp knock in mice using anti-CD4 beads (Miltenyi, Auburn, Calif., USA) and sorted (FACSAria™ cell sorter, BD Biosciences) into naive CD4^+ Foxp3:GFP^− or CD4^+ Foxp3:GFP T cells. CD4^+ Foxp3:GFP^− T cells were stimulated with plate bound 1 μg/ml of anti-CD3 (145-2C11, eBioscience) and 2 μg/ml of anti-CD28 (37.51, eBioscience) for 5 days, supplemented with recombinant IL-2 (50 U/ml) at day 2 and 4, and analyzed by FACS at day 5 for their differentiation into […]. TGFβ1 (2.5 ng/ml) was used as a positive control.
# To establish if TCDD triggered the conversion of CD4^+Foxp3^− T cells into new Foxp3^+ Treg cells, FACS sorted CD4^+Foxp3:GFP− T cells were activated in vitro with antibodies to CD3 and CD28 in the presence of TCDD, and the generation of CD4^+Foxp3:GFP^+ Treg was followed by FACS. TGFb1 was used as a positive control.
# [2] = tested on: CD4+ CD62L+CD45RO- T cells; assay: In vitro differentiation of human naive CD4+ T cells, suppression and real time PCR; type: cell-based; conditions: 5 days activation with antibodies to CD3 and CD28; TGFb1 2.5 ng/ml or TCDD alone
# Procedure: To investigate the potential of AHR targeting for the induction of human Treg we activated purified naïve CD4^+ CD62L^+CD45RO^− T cells for healthy donors for 5 days with antibodies to CD3 and CD28 in the presence of TCDD 100 nM or TGFb1 2.5 ng/ml or both.
# To study the functionality of the putative human Treg induced in the presence of TCDD we studied their suppressive activity of CD4^+ CD25^High and CD4^+CD25^Low T cells following 5 days of activation in the of TCDD or TGFb1 2.5 ng/ml or both.
# To investigate the mechanism mediating the suppressive activity of the TCDD-induced Treg, we analyzed them by real time PCR for the expression of several genes that have been previously linked to the suppressive function of Treg. […] Accordingly, IL-10-specific blocking antibodies could interfere with the suppressive activity of Treg induced with TCDD, but not the of those induced with TGFb1 and TCDD (FIG. 42). Thus, TCDD-induced CD4^+CD25^High T cells are FoxP3^− regulatory cells whose suppressive activity is mediated, at least partially, via IL-10, resembling the phenotype of type 1 Treg (Roncarolo et al., Immunol Rev. 212, 28 (2006); Roncarolo and Gregori, Eur J Immunol. 38, 925 (2008)).
compound,measurement,setting,value
"O=Cc1c2c(cc3c1=Nc1ccccc1-3)=Nc1ccccc1-2 [FICZ, 6-formylindolo[3,2-b]carbazole]",EAE development,"C57BL/6 mice; AHR-ligand loaded nanoparticles, 45 femtomoles weekly starting at day 0",worsened the disease
"NCCc1c[nH]c2ccccc12 [TA, tryptamine]",AHR affinity,AHR,high affinity AHR ligands
same,EAE suppression,C57BL/6 mice; TA combined with the monoamine oxidase inhibitor Tranylcypromine,effectively suppresses EAE
same,toxic effects,[1],do not display the toxic effects
Oc1ccc(C=Cc2cc(O)cc(O)c2)cc1 [resveratrol],suppressive activity of Treg,CD4+Foxp3:GFP+ Treg,Decreases in the suppressive activity
same,induction of Treg by TGFβ1 and TCDD,CD4+Foxp3:GFP- T cells,interfered with the induction of Treg
"TGFb1: TGFβ1, positive control for Treg induction",induction of suppressive (regulatory) T cells,[2],did not result in the induction of suppressive T cells
